Key:
[1] = tested on: C600ThyA::Kan^R cells
Experimental: In vivo growth curves. Cells grown overnight in LB were diluted 1:100 in MM containing either theophylline, caffeine, 3-methylxanthine or no effector, and analyzed on a Microbiology Workstation Bioscreen C (Labsystems, Inc., Franklin, Mass.).

[2] = tested on: 3MeX2P6; experiment: Effector specificity of 3MeX2P6 in vitro and in vivo
Experimental: In vitro splicing assays. The assays were preformed by heating the RNA (500 nM) in H2O to 70° C. for 3 min then transferring to ice for 1 min. […] GTP (50 μM) was added to the remaining reaction (5 μl total volume) to start the splicing reaction. The reaction was incubated at 37° C. for 30 min and then terminated with stop dye (5 μl). The reactions were heated to 70° C. for 3 min and 5 μl was analyzed on an 8% denaturing polyacrylamide gel. The gel was dried, exposed to a phosphor screen and analyzed using a Molecular Dynamics Phosphorimager (Sunnyvale, Calif.). In vivo growth curves.

[3] = biological target: T1, lysozyme (Gallus gallus, UniProt P00698); experiment: Competition assay, competitor RNA against lysozyme activation of lys11-2; type: biochemical, hen; settings: 3 μM competitor RNA, 2 μM lysozyme
Experimental: Competition assays. Ligation assays were performed as described above, using 10 pmol of [^32P]-body-labeled ribozyme (cyt7-2 or lys11-2; […]) and 20 pmol effector oligonucleotide (2 μM). The denatured and annealed RNA mixture was combined with ligation buffer, 20 pmol protein (Cyt18, lysozyme, or water in the case of (−) protein samples; 2 μM), and 30 pmol of denatured and annealed competitor RNA (3 μM). Competitor RNAs are as follows:
Where N=(A, G, C, U), and tRNA (from Yeast; Gibco BRL, Gaithersburg, Md.). […] Cyt18 reactions were incubated 5 min at 25° C. and lysozyme reactions were incubated 10 min. Reactions were terminated by the addition of 45 μl of SDS/urea stop mix (75 mM EDTA, 80% formamide, saturated urea, saturated SDS, 0.05% bromophenol blue, 0.05% xylene cyanol) and analyzed on 8% polyacrylamide gels containing 0.1% SDS as above.

[4] = biological target: T1, lysozyme; experiment: Filter binding assay with lysozyme; set-up: species or system hen; settings: read-out: Kd of anti-lysozyme aptamer
Experimental: Binding assays. Binding assays were performed in triplicate by combining I pmol of [^32P]-body-labeled RNA, 20 pmol 18.90a, and varying amounts of target protein (1 pmol to 5 nmol) in 50 μl of ligation buffer. After incubation at room temperature for 30 min, the mixture was drawn under vacuum through a series of nitrocellulose and nylon filters and washed with 150 μl of ligation buffer. The ratio of protein-bound RNA versus free RNA was determined by analyzing the counts retained on the nitrocellulose filter versus the counts on the nylon filter.

[5] = tested on: Cyt 18-dependent population; experiment: Specificity of activation of Cyt18-dependent ribozymes by proteins; type: biochemical
Experimental: (§1) Protein inactivation. Standard ligation assays were performed as described above, but in the presence of protein samples that had been pre-treated as follows. Cyt18 protein was denatured by heating for 10 min at 70° C. or by the addition of 6% SDS (0.7% SDS in ligation reaction). Lysozyme was heated 10 min at 100° C. or incubated 10 min at room temperature in the presence of 2 mM DTT (0.3 mM DTT final reaction) without inactivating the protein. The protein was successfully inactivated by heating for […] at 70° C. in the presence of 2 mM DTT. Ligation reactions were performed with 1.3 μM protein in 15 μl reactions incubated 5 min at 25° C.

[6] = tested on: lysozyme-dependent clones; experiment: Specificity of activation of lysozyme-dependent ribozymes by proteins; type: biochemical; settings: lysozyme both reduced and denatured
Experimental: as §1

[7] = tested on: Rev-dependent ligase; type: biochemical
Experimental: Ligation assays. Ligation assays were performed as described hereinabove.

In the case of Cn1c(=O)c2[nH]cnc2n(C)c1=O [theophylline], the “concentration causing a decrease in growth of cells containing the parental td intron (toxic to cells)” value ([1]; E. coli) is reported as “greater than 0.5 mM”, the “concentration that progressively decreases growth of cells with theophylline-dependent introns” value ([1]; E. coli) is reported as “above 2 mM” and the “responsiveness of 3MeX2P6 variants to effector” value (“responsiveness” for short) [2] is reported as “no longer responsive”.
For Cn1cnc2c1c(=O)[nH]c(=O)n2C [theobromine], the “responsiveness” value [2] was “nor were they responsive”.
“cl: high affinity anti-lysozyme aptamer, SEQ ID NO:13 (GCGACTGGACATCACGAG; chemistry not given here)” was tested, and the “reduction of lysozyme activation of lys11-2 by competitor RNA” value [3] was “reduced activation to background levels” and the Kd [4] was 31 nM.
With Cn1c(=O)c2c(ncn2C)n(C)c1=O [caffeine] the “activation of growth of cells with td gene divided by Th2P6 by effector” value [1] was “not activated” and the “responsiveness” value [2] was “nor were they responsive”.
“E. coli tryptophanyl tRNA synthetase: non-cognate protein” was tested, and the “activation of Cyt18-dependent ribozyme by non-cognate protein” value (“activation … by non-cognate protein” for short) [5] was “No activation”.
With Cn1c(=O)[nH]c(=O)c2[nH]cnc21 [3-methylxanthine] the “responsiveness” value [2] was “responsive”.
In the case of MS2 coat protein: non-cognate protein, the “activation … by non-cognate protein” value [5] is reported as “No activation”.
For Cn1c(=O)[nH]c2nc[nH]c2c1=O [1-methylxanthine], the “responsiveness” value [2] was “nor were they responsive”.
In the case of O=c1[nH]c(=O)c2[nH]cnc2[nH]1 [xanthine], the “responsiveness” value [2] is reported as “nor were they responsive”.
For O=c1[nH]cnc2nc[nH]c12 [hypoxanthine], the “responsiveness” value [2] was “nor were they responsive”.
For lysozyme: hen egg white lysozyme, the “activation of catalysis by inactivated lysozyme” value [6] was “unable to activate” and the “activation … by non-cognate protein” value [5] was “No activation”.
N=C(N)NCCC[C@H](N)C(=O)O [arginine] was tested, and the “activation of the Rev-dependent ligase” value [7] was “Activation was observed only with HIV Tat peptide”.
For Cn1c(=O)c2[nH]c(=O)[nH]c2n(C)c1=O [1,3-dimethyl urilic acid], the “responsiveness” value [2] was “nor were they responsive”.
With Cn1cnc2[nH]c(=O)[nH]c(=O)c21 [7-methylxanthine] the “responsiveness” value [2] was “nor were they responsive”.

— patent publication US20040126882A1, “Regulatable, catalytically active nucleic acids” (priority 2000, published 2004)
